SMILES strings stand for the structures. pKi: −log10 of the molar value.

The assay deals with Acetylcholine receptor (Torpedo californica, UniProt P02710+P02712+P02714+P02718). Nature of the assay: Compound was evaluated for inhibition of [3H]TCP binding to Nicotinic acetylcholine receptor of Torpedo californica. The class given is protein-complex assay, Tetronarce californica.
Chain of Acetylcholine receptor (P02710 whole entry): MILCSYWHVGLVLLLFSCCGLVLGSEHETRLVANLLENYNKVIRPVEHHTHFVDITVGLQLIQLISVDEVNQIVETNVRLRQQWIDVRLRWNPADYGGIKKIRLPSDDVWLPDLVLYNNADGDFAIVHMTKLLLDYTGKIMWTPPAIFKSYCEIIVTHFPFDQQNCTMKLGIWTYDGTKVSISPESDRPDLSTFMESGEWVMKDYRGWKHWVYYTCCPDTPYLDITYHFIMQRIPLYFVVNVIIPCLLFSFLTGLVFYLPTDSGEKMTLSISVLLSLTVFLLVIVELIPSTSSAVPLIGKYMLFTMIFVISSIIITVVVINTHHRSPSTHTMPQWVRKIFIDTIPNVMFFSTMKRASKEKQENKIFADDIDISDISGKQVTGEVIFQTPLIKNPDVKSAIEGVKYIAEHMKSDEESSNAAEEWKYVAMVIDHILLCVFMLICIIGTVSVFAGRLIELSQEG
Chain of Acetylcholine receptor (P02712 whole entry): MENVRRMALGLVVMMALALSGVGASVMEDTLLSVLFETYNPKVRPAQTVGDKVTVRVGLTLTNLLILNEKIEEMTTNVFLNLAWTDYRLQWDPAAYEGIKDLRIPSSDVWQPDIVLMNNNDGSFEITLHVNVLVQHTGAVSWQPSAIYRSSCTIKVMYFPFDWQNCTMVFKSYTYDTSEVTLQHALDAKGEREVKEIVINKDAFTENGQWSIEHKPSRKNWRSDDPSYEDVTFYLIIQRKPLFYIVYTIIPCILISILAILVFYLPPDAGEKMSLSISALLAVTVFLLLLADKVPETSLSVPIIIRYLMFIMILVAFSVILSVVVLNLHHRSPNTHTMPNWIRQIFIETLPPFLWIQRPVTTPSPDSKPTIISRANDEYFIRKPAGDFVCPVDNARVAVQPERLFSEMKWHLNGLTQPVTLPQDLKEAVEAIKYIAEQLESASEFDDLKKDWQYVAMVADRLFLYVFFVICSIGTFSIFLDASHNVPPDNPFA
Chain of Acetylcholine receptor (P02718 whole entry): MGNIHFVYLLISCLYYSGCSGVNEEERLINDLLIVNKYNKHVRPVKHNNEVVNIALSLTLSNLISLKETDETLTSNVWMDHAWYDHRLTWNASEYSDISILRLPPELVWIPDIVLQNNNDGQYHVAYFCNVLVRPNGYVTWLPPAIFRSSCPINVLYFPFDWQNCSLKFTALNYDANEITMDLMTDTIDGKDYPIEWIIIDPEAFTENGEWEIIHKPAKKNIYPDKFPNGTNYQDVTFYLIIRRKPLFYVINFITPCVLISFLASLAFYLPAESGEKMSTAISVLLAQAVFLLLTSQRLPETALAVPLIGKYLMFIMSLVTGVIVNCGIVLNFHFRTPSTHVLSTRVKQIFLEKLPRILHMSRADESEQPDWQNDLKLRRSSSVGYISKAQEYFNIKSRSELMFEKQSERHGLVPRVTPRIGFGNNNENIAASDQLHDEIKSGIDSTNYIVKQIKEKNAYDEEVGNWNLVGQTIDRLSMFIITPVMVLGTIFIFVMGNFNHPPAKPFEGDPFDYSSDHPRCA
Chain of Acetylcholine receptor (P02714 whole entry): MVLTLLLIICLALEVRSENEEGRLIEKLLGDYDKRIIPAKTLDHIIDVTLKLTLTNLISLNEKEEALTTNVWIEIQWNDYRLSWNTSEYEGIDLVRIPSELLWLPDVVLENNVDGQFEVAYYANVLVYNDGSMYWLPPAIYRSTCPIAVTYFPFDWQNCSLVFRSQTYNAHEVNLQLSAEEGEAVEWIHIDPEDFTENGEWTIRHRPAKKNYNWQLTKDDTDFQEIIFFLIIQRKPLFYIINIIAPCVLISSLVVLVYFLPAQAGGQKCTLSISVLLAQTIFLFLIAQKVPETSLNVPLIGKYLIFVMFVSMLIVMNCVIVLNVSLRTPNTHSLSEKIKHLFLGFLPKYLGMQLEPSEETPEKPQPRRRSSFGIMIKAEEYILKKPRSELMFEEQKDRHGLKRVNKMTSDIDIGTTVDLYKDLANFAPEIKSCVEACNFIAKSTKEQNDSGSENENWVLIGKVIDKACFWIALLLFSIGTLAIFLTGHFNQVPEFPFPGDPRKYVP

As usually defined, the pKi is the Ki on a negative log10 scale, so that one unit is a factor of ten. For the molecule `CCC[C@H]1CC[C@@H]2CC[C@@H](CCCCC[C@@H](C)O)N21`, the pKi is 2.51.
On to `CCC[C@H]1CC[C@@H]2CC[C@@H](CCCCC[C@H](C)O)N21`, for which the pKi is 2.51.
Next, `CCCC[C@H]1CCCC2CC[C@@H](CCCC)N21` (stereo partly drawn): 3.43.
In the case of `C[C@@H](O)CCCCC[C@@H]1CC[C@H]2CC[C@H](C)N12`, the pKi is 2.08.
Turning to `C[C@H](O)CCCCC[C@@H]1CC[C@H]2CC[C@H](C)N12`, the pKi was 2.48.
For the molecule `CCCC[C@@H]1CCCC2CC[C@@H](CCCC)N21` (stereo partly drawn), the pKi is 3.38.
As for `CCC[C@H]1CC[C@@H]2CC[C@@H](CCCCCC(C)=O)N21`, the pKi was 3.08.
The molecule `CCCCCCC[C@@H]1CC[C@H]2CC[C@H](C)N12` gave a pKi of 4.30.

These data come from ChEMBL document CHEMBL1132916, “Total synthesis of pyrrolizidines 223H', 239K', 265H', and 267H' found in Madagascan frogs (Mantella) and their affinities for nicotinic acetylcholine receptor” (Bioorg Med Chem Lett, 2000).
